Among the test systems are HCT-116 colon; A549 NSCLC; ACHN renal; SK-OV-3 ovarian; TK-10 renal; CCRF-CEM leukemia; 786-0 renal; SN12C renal; PC-3 prostate; SW-620 colon.
Assay in all cases: NCI-60 cell line screen, 48 h

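Values below derive from 48-hour exposures of cells grown in 96-well plates, with endpoints linearly interpolated between the two concentrations bracketing the appropriate inhibition level. GI50 is the concentration that inhibits growth by half. TGI marks complete inhibition of growth.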 Bounds are passed on as bounds.

On to `CN1CCN(C(=S)SCN2C(=O)c3ccccc3S2(=O)=O)CC1`, for which the GI50 was 12.8 µM in the experiment on HCT-116 colon; 28.3 µM in the experiment with A549 NSCLC; 41.3 µM in the experiment with ACHN renal; more than 100 µM in the experiment with SK-OV-3 ovarian; 43.4 µM with TK-10 renal; 2.23 µM in the experiment with CCRF-CEM leukemia. In addition, the GI50 in the experiment with 786-0 renal is 12 µM; in the experiment with SN12C renal, 52.5 µM; in the experiment with PC-3 prostate, 10.8 µM; in the experiment on SW-620 colon, 9.31 µM. The TGI was 44.9 µM in the experiment on HCT-116 colon; more than 100 µM in the experiment on A549 NSCLC; more than 100 µM in the experiment on ACHN renal; more than 100 µM in the experiment with SK-OV-3 ovarian; more than 100 µM with TK-10 renal; 43 µM in the experiment on 786-0 renal. The values for the TGI with SN12C renal, in the experiment on PC-3 prostate and in the experiment on SW-620 colon were more than 100 µM, 39.2 µM and 74.9 µM, respectively.
For the molecule `O=c1[nH]c(-c2ccccn2)nc2sc3c(c12)CCCCCC3`, the GI50 with HCT-116 colon is 1.37 µM; with A549 NSCLC, 2.57 µM; with ACHN renal it was 5.19 µM; with SK-OV-3 ovarian it was more than 100 µM; in the experiment with TK-10 renal, more than 100 µM; with CCRF-CEM leukemia it was 0.905 µM. For the same molecule, the GI50 in the experiment with 786-0 renal is 5.65 µM; with SN12C renal it was 6.29 µM; with PC-3 prostate, 4.05 µM; in the experiment on SW-620 colon, 4.85 µM. The TGI in the experiment on HCT-116 colon, with A549 NSCLC, with ACHN renal, in the experiment with SK-OV-3 ovarian, in the experiment with TK-10 renal and in the experiment with CCRF-CEM leukemia was more than 100 µM in each case. Also, the TGI in the experiment on 786-0 renal, in the experiment on SN12C renal, in the experiment on PC-3 prostate and with SW-620 colon was more than 100 µM in each case.
Take `O=C(Cc1nc2ccc([N+](=O)[O-])cc2[nH]c1=O)C(=O)Nc1cc(Cl)c(Cl)cc1Cl`: the TGI in the experiment with HCT-116 colon, in the experiment on A549 NSCLC, in the experiment on ACHN renal, in the experiment on SK-OV-3 ovarian, with TK-10 renal and with CCRF-CEM leukemia was more than 100 µM throughout. Further, the TGI in the experiment with 786-0 renal, with SN12C renal, in the experiment on PC-3 prostate and in the experiment with SW-620 colon was more than 100 µM in each case.
With `COCCCN1C(=O)C2c3[nH]c4ccccc4c3C3CCC(C(C)(C)C)CC3C2C1=O` (centres undefined), the TGI in the experiment on HCT-116 colon was 38.6 µM; in the experiment on A549 NSCLC, more than 100 µM; in the experiment with ACHN renal it was 83.9 µM; with SK-OV-3 ovarian, more than 100 µM; in the experiment on TK-10 renal it was more than 100 µM; in the experiment with CCRF-CEM leukemia it was 52.9 µM. For the same molecule, the TGI in the experiment on 786-0 renal was 63.1 µM; in the experiment with SN12C renal, 50 µM; in the experiment on PC-3 prostate, 50.8 µM; in the experiment with SW-620 colon, more than 100 µM.
Take `CNC(=O)OCC1=C(COC(=O)NC)CN(c2ccccc2)C1`: the TGI in the experiment on HCT-116 colon, with A549 NSCLC, in the experiment with ACHN renal, in the experiment with SK-OV-3 ovarian, with TK-10 renal and in the experiment on CCRF-CEM leukemia was more than 100 µM throughout. The TGI in the experiment with 786-0 renal, with SN12C renal, in the experiment with PC-3 prostate and in the experiment with SW-620 colon was more than 100 µM in each case.
For `CCCCCCCCCCCCCCCC(=O)OCC1OC(n2ccc(N)nc2=O)C(O)C1O` (centres undefined), the TGI in the experiment with HCT-116 colon is more than 100 µM; in the experiment with A549 NSCLC, more than 100 µM; in the experiment on ACHN renal, more than 44.2 µM; in the experiment with SK-OV-3 ovarian it was more than 100 µM; in the experiment with TK-10 renal, more than 100 µM; in the experiment with CCRF-CEM leukemia it was 8.85 µM. For the same molecule, the TGI was more than 50.5 µM in the experiment on 786-0 renal, more than 100 µM in the experiment on SN12C renal, more than 100 µM with PC-3 prostate and more than 100 µM with SW-620 colon.
On to `Cc1csc(Nc2nc(-c3cccc(Cl)c3)nc(C(Cl)(Cl)Cl)n2)n1`, for which the GI50 with HCT-116 colon was 2.29 µM; with A549 NSCLC, 1.06 µM; with ACHN renal, 0.888 µM; in the experiment on SK-OV-3 ovarian, 8.69 µM; in the experiment with TK-10 renal, 2.51 µM; in the experiment on CCRF-CEM leukemia, 21.7 µM. Moreover, the GI50 in the experiment with 786-0 renal was 11 µM; in the experiment on SN12C renal, 13.5 µM; in the experiment on PC-3 prostate, 1.27 µM; in the experiment on SW-620 colon, 2.21 µM. For the same molecule, the TGI is more than 33.3 µM with HCT-116 colon; 5.27 µM with A549 NSCLC; 3.46 µM in the experiment on ACHN renal; more than 33.3 µM with SK-OV-3 ovarian; 14.4 µM in the experiment with TK-10 renal; more than 33.3 µM with CCRF-CEM leukemia. In addition, the TGI with 786-0 renal was more than 33.3 µM; in the experiment on SN12C renal it was more than 33.3 µM; in the experiment on PC-3 prostate, 7.85 µM; in the experiment with SW-620 colon, more than 33.3 µM.
As to `CC(C)(C)c1ccc(S(=O)(=O)N[C@H]2CC[C@H]3[C@@H]4CCc5cc(O)ccc5[C@H]4CC[C@]23C)cc1`, the GI50 is 1.63 µM with HCT-116 colon; 2.14 µM with A549 NSCLC; 2.28 µM with ACHN renal; 3.12 µM in the experiment on SK-OV-3 ovarian; 3.79 µM in the experiment on TK-10 renal; 2.63 µM with CCRF-CEM leukemia. Besides, the GI50 with 786-0 renal was 2.19 µM; with SN12C renal it was 1.76 µM; with PC-3 prostate, 2.1 µM; in the experiment on SW-620 colon, 3.18 µM. The TGI in the experiment with HCT-116 colon came out at 2.98 µM; with A549 NSCLC, 7.24 µM; with ACHN renal, 5.67 µM; in the experiment with SK-OV-3 ovarian, 8 µM; in the experiment on TK-10 renal, 12.1 µM; in the experiment with CCRF-CEM leukemia, 7.79 µM. Also, the TGI with 786-0 renal was determined as 5.02 µM; with SN12C renal it was 3.55 µM; in the experiment on PC-3 prostate, 7.57 µM; in the experiment with SW-620 colon it was 11.8 µM.
Turning to `CN1c2ccccc2C(=O)Nc2cnc(Cl)nc21`, the TGI in the experiment on HCT-116 colon, in the experiment on A549 NSCLC, in the experiment on ACHN renal, with SK-OV-3 ovarian, in the experiment on TK-10 renal and with CCRF-CEM leukemia was more than 100 µM throughout. Also, the TGI in the experiment on 786-0 renal, in the experiment with SN12C renal, with PC-3 prostate and in the experiment with SW-620 colon was more than 100 µM in each case.
As for `Cc1ccc(OCCCCCCNCCO)c(C)c1`, the GI50 was 14.2 µM in the experiment with HCT-116 colon; 17.8 µM in the experiment with A549 NSCLC; 13.8 µM in the experiment with ACHN renal; 15.6 µM with SK-OV-3 ovarian; 16 µM in the experiment on TK-10 renal; 15.6 µM in the experiment with CCRF-CEM leukemia. The GI50 in the experiment with 786-0 renal is 14 µM; in the experiment on SN12C renal it was 12.7 µM; in the experiment with PC-3 prostate, 14 µM; with SW-620 colon, 16.3 µM. Besides, the TGI was determined as 31.6 µM in the experiment on HCT-116 colon; 34.8 µM in the experiment with A549 NSCLC; 27.8 µM with ACHN renal; 29.8 µM with SK-OV-3 ovarian; 30 µM with TK-10 renal; 36.7 µM in the experiment on CCRF-CEM leukemia. Besides, the TGI in the experiment on 786-0 renal was 28.8 µM; in the experiment with SN12C renal, 26.9 µM; in the experiment on PC-3 prostate, 29.7 µM; in the experiment with SW-620 colon it was 33 µM.

The values above are taken from PubChem BioAssay (NCI).
